Measured values from article PMC9503009, “Determining Ligand and Ion-Induced Conformational Changes in Serotonin Transporter with Its Fluorescent Substrates” (International Journal of Molecular Sciences, 2022).
Where two headings read alike, the source gives them in different places.

Experiments:
Assay type in all cases: cell-based
[1] = molecular target: T1, SERT Y107C/C109A (Rattus norvegicus, UniProt P31652, C109A/Y107C); experiment: MTSET inhibition of APP+ uptake in live cells (extracellular pathway cysteine accessibility); conditions: Y107C/C109A
T1 construct: expressed in transfected cells
Experimental: (§1) Figure 3 Reactivity of the extracellular cysteine mutants with MTSET. (A) MTSET concentration-dependent inhibition of APP^+ uptake. The cells stably expressing C109A, Y107C/C109C, or S404C/C109A were incubated for 15 min with indicated concentrations of MTSET. The MTSET concentration giving half-maximal inhibition of APP^+ accumulation in the cells was used to calculate inactivation rate constants as plotted in (B). […] Representative images of APP^+ uptake by C109A, Y107C/C109A, or S404C/C109A under various MTSET concentrations were shown in Supplemental Figure S1. […] (B) Rate constants of MTSET inhibition of APP^+ uptake. At the half-maximal concentration, the half-time is the assay time (15 min) and the first-order rate constant is 7.7 × 10^−4 s^−1. This rate constant was divided by the half maximal MTSET concentration from (A) to obtain the pseudo first-order modification rate constant. Error bars represent SEM of three experiments.
(A) MTSET concentration-dependent inhibition of APP^+ uptake. […] After washing to remove excess MTSET and ligands, APP^+ uptake was measured as described under “Materials and Methods”. […] (B) Rate constants of MTSET inhibition of APP^+ uptake. The IC50 values of MTSET inhibition were used to calculate rate constants as described under “Materials and Methods”. Error bars represent SEM from three experiments.
(§2) The cells stably expressing Y107C/C109A or S404C/C109A were preincubated with indicated ligands and MTSET at a concentration of 0.01 mM for Y107C/C109A or 0.002 mM for S404C/C109A at 22 °C for 15 min, respectively. At the end of this incubation, cells were washed free of MTSET and ligands into KRH buffer containing NaCl and APP^+. APP^+ uptake was measured as described under “Materials and Methods”. Error bars represent SEM from three experiments. Asterisks and hashtags indicate statistically significant changes (p < 0.05) in the accumulated APP^+ fluorescence compared with the corresponding control (MTSET alone).
The cells stably expressing Y107C/C109A were treated at 22 °C for 15 min with indicated concentrations of MTSET in the absence or presence of 10 μM vilazodone. After washing to remove excess MTSET and vilazodone, APP^+ uptake was measured as described under “Materials and Methods”. […] The IC50 values of MTSET inhibition were used to calculate rate constants as described under “Materials and Method”. Error bars represent SEM from three experiments. […] After washing to remove excess MTSEA and vilazodone, ASP^+ binding was measured as described under “Materials and Methods”. […] The IC50 values of MTSEA inhibition of ASP^+ binding were converted to rate constants.

[2] = molecular target: T2, SERT S277C/X5C (Rattus norvegicus, UniProt P31652, C109A/C15A/C21A/C357I/C622A/S277C); experiment: MTS reagent inhibition of ASP+ binding in digitonin-permeabilized cells (cytoplasmic pathway cysteine accessibility); conditions: S277C/X5C, 25 μg/mL digitonin
T2 construct: expressed in transfected cells
Experimental: After 3 × rapid washing with KRH buffer, APP^+ or ASP^+ accumulation was measured as described under “Materials and Methods”. […] These representative images were parallelly acquired from one experiment. […] After 3 × washing, ASP^+ binding to the cell membrane was measured as described under “Materials and Methods”. […] (D) The effects of MTSET on ASP^+ binding of S277C/X5C and X5C. […] After 3 × rapid washing, ASP^+ binding was measured as described under “Materials and Methods”.
After washing to remove excess MTSEA and ligands, ASP^+ binding was measured as described under “Materials and Methods”. […] The IC50 values of MTSEA inhibition of ASP^+ binding were converted to rate constants.
The cells stably expressing Y107C/C109A were treated at 22 °C for 15 min with indicated concentrations of MTSET in the absence or presence of 10 μM vilazodone. After washing to remove excess MTSET and vilazodone, APP^+ uptake was measured as described under “Materials and Methods”. […] The IC50 values of MTSET inhibition were used to calculate rate constants as described under “Materials and Method”. Error bars represent SEM from three experiments. […] After washing to remove excess MTSEA and vilazodone, ASP^+ binding was measured as described under “Materials and Methods”. […] The IC50 values of MTSEA inhibition of ASP^+ binding were converted to rate constants. […]
For cytoplasmic pathway accessibility, measurements were performed with the cells stably expressing S277C/X5C. […] The cells, then, were washed free of unreacted MTSEA and ligands, ASP^+ binding was measured by adding 500 μL KRH buffer containing 10 μM ASP^+ and incubating at 22 °C for 5 min. Excess ASP^+ was removed by 3 × rapid washing with KRH buffer and ASP^+ fluorescence retained in the cell membrane was measured by confocal imaging analysis in the permeabilized cells. […] The MTSEA IC50 value was determined and used to calculate the rate constant for S277C/X5C modification.

[3] = molecular target: T3, SERT C109A (Rattus norvegicus, UniProt P31652, C109A); experiment: MTSET inhibition of APP+ uptake in live cells (extracellular pathway cysteine accessibility)
T3 construct: expressed in transfected cells
Experimental: Figure 3 Reactivity of the extracellular cysteine mutants with MTSET. (A) MTSET concentration-dependent inhibition of APP^+ uptake. The cells stably expressing C109A, Y107C/C109C, or S404C/C109A were incubated for 15 min with indicated concentrations of MTSET. The MTSET concentration giving half-maximal inhibition of APP^+ accumulation in the cells was used to calculate inactivation rate constants as plotted in (B). In this experiment, half-maximal MTSET concentrations were […] for C109A, 0.011 ± 0.006 mM for Y107C/C109A, and 0.0025 ± 0.0008 mM for S404C/C109A, respectively. Representative images of APP^+ uptake by C109A, Y107C/C109A, or S404C/C109A under various MTSET concentrations were shown in Supplemental Figure S1. The experiment was repeated twice with similar results. (B) Rate constants of MTSET inhibition of APP^+ uptake. At the half-maximal concentration, the half-time is the assay time (15 min) and the first-order rate constant is 7.7 × 10^−4 s^−1. […]
Accessibility of the cysteine residues in the extracellular pathway was measured by reactivity of Y107C/C109A and S404C/C109A mutants with MTSET. […] The extent of APP^+ accumulated in the cells was determined by confocal imaging analysis in the live cells. […] The MTSET concentration causing half-maximal inactivation was determined and used to calculate the rate constant for cysteine modification, as described previously.

[4] = molecular target: T4, SERT S404C/C109A (Rattus norvegicus, UniProt P31652, C109A/S404C); experiment: as above; conditions: for IC50: S404C/C109A
T4 construct: expressed in transfected cells
Experimental: as §1, §2
Accessibility of the cysteine residues in the extracellular pathway was measured by reactivity of Y107C/C109A and S404C/C109A mutants with MTSET. The cells stably expressing Y107C/C109A or S404C/C109A were incubated with MTSET over a range of concentrations in HEPES buffer containing indicated ligands or ions at 22 °C for 15 min. After excess MTSET and ligands were removed by rapid 3 × washing with the same buffer, the cells were then incubated with APP^+ at a final concentration of 2 μM in KRH buffer at 22 °C for another 5 min. The extent of APP^+ accumulated in the cells was determined by confocal imaging analysis in the live cells. To measure the effects of antidepressants, substrate 5-HT, or other ligands such as 5-HTP or tryptophan, where added, was present at 10 μM. To measure the effects of ions, 150 mM […] (NMDG) gluconate, and NMDG chloride, sodium isethionate, or NaCl was used as indicated. These measurements of reactivity depend on the ability of MTSET to inactivate APP^+ transport activity by an allosteric mechanism. The MTSET concentration causing half-maximal inactivation was determined and used to calculate the rate constant for cysteine modification, as described previously.

[5] = 15 min incubation with MTSET, read-out: half-maximal MTSET concentration for inhibition of APP+ accumulation
[6] = constant concentration used in simplified assay, read-out: MTSET IC50 value (APP+ uptake inhibition)

C[N+](C)(C)CCSS(C)(=O)=O.[Br-] [MTSET, 2-(Trimethylammonium) ethyl methanethiosulfonate bromide]
IC50 [1, 5]: 11 ± 6 µM
IC50 [1, 6]: 10 µM
accessibility of Cys277 to MTSET [2]: not accessible
IC50 ([3]; C109A, 15 min incubation with MTSET, read-out: half-maximal MTSET concentration for inhibition of APP+ accumulation): > 1000 µM
effect on transport activity (APP+ uptake) ([3]; background construct C109A, MTSET 0.1 μM to 1 mM): little effect
IC50 [4, 5]: 2.5 ± 0.8 µM
IC50 [4, 6]: 2 µM
reactivity with MTSET of S404C/C109A relative to Y107C/C109A (faster by) ([4]; pseudo first-order rate constants): 4-5 fold
